Data as given in patent US11466024B2, “Bicylic compound acting as an inhibitor” (CHIA TAI TIANQING PHARMACEUTICAL GROUP CO., LTD., priority 2017, dated 2022).

Assays:
hERG potassium channel = hERG potassium channel (Homo sapiens, UniProt Q12809); assay: Inhibition test of hERG potassium channel (QPatch, CHO-hERG cells)
Description: CHO-hERG cells (from Shanghai Institute of Materia Medica, Chinese Academy of Sciences) were cultured in a 175 cm^2 culture flask. When the cell density reached 60% to 80%, the culture medium was removed, the cells were washed once with 7 mL of PBS, and then 3 mL of Detachin was added for cell detachment. After complete cell detachment, 7 mL of culture medium were added for neutralization, the mixture was then centrifuged, the supernatant was aspirated, and another 5 mL of culture medium was added for re-suspension, so as to ensure that the cell density was 2×10^6/mL to 5×10^6/mL.
The single-cell giga-seal and the formation of whole-cell mode were both completed automatically by a Q patch instrument. After a whole-cell recording mode was achieved, the cells were clamped at −80 mV, exposed to a front voltage of −50 mV for 50 ms prior to a depolarizing stimulus (5 s, +40 mV), and then repolarized to −50 mV for 5 s, followed by a recovery to −80 mV. This voltage stimulation was applied every 15 s and recorded for 2 minutes, and the extracellular fluid was then administered, followed by a record lasting for 5 minutes. Thereafter, the administration process was started. Starting from the lowest test concentration, the compounds were administered at each test concentration and the process lasted for 2.5 minutes. […] At least 3 cells (n≥3) were tested at each concentration.
20 mM stock solution of the compound was diluted with the extracellular fluid, and 5 μL of the 20 mM stock solution of the compound was taken, added to 2495 μL of the extracellular fluid, and diluted by 500 times to 40 μM. Thereafter, the resulting mixture was serially and successively diluted by 3 times in an extracellular fluid containing 0.2% DMSO, so as to obtain a final concentration to be tested.
The experimental data was analyzed by XLFit software.

RORγ = biological target: T1, RORγ (Homo sapiens, UniProt P51449); assay: In vitro test for inhibitory activity on RORγ: luciferase reporter cells expressing chimeric Gal4-RORγ receptor; assay type: cell-based; details: Gal4 hybrid receptor luciferase reporter, HEK293, 24 hours incubation
T1 sequence (P51449 97-518): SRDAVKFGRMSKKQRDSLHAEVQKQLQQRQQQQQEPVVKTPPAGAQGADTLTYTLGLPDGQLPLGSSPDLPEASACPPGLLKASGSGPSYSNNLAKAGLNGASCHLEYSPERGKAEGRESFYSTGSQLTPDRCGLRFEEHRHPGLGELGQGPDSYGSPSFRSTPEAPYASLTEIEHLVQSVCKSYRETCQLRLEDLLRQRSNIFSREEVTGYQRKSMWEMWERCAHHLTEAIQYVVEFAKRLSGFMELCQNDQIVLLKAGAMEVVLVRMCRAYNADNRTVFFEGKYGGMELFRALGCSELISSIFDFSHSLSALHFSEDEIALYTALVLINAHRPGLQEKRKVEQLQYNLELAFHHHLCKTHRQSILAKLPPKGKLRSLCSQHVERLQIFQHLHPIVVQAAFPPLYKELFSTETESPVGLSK
Description: Reporter cells: Reporter cells expressing a chimeric RORγ receptor were used in this experiment. The chimeric RORγ receptor was a RORγ receptor formed by replacing the N-terminal DNA-binding domain of the natural RORγ protein with the DNA-binding domain of the yeast Gal4 protein. The luciferase reporter gene was located at the downstream of the Gal4 activating sequence (UAS).
Step 1: Reporter cells were prepared into a cell suspension using INDIGO's Cell Recovery Medium (CRM, containing 5% fetal bovine serum treated by activated carbon). The cell suspension was dispensed into a white 96-well culture plate in a volume of 100 μl/well.
Step 2: Eight concentration gradients were set for each test compound, and the test was conducted twice at each concentration. Prior to the experiment, the main stock solution of the test compound was serially diluted with DMSO, so as to formulate solutions with “1000×-concentration” relative to each of the final test concentrations. Subsequently, the compound was further diluted with the cell recovery medium (CRM, containing 5% fetal bovine serum treated by activated carbon), so as to formulate test working solutions with “2×-concentration”. As per a volume of 100 μl/well, the test working solutions were respectively added to the test wells in which the reporter cells were added in advance, so as to obtain the desired final test concentrations. The residual concentrations of DMSO in all test wells were 0.1%. The test plate was incubated in a cell incubator for 24 hours. Conditions of the incubator were set as follows: temperature: 37° C., 5% CO2, humidity: ˜85%.
Step 3: After 24 hours of incubation, the liquid in the culture plate was discarded, 100 μl of luciferase detection reagent was added to each test well, and then, the fluorescence intensity (Relative Luminescence Units, RLUs) in each well was read.
In this test, the reference compound ursolic acid was used as an internal standard of a positive compound to verify the inhibitory effect of the test compound on RORγ in reporter cells of a specific batch. The tests for the reference compound and the test compound were performed simultaneously, and the reference compound and the test compound were thus exposed to the same test reagent and environment. The reference compound group containing 0.1% DMSO as solvent was used as an internal standard of a positive compound, so as to determine the effect of the solvent DMSO on the test results and calculate the percentage reduction in RORγ activity.
The test data was managed and archived by Microsoft Excel, and mean±standard deviation (SD) of RLU, fold of reduction, inhibition rate, coefficient of variation (% CV) and Z factor were calculated. Coefficient of variation (% CV): 100×(SD/Ave. RLU); Fold of reduction for inverse agonist: [Ave. […]

Sequence of hERG potassium channel (Q12809 whole entry): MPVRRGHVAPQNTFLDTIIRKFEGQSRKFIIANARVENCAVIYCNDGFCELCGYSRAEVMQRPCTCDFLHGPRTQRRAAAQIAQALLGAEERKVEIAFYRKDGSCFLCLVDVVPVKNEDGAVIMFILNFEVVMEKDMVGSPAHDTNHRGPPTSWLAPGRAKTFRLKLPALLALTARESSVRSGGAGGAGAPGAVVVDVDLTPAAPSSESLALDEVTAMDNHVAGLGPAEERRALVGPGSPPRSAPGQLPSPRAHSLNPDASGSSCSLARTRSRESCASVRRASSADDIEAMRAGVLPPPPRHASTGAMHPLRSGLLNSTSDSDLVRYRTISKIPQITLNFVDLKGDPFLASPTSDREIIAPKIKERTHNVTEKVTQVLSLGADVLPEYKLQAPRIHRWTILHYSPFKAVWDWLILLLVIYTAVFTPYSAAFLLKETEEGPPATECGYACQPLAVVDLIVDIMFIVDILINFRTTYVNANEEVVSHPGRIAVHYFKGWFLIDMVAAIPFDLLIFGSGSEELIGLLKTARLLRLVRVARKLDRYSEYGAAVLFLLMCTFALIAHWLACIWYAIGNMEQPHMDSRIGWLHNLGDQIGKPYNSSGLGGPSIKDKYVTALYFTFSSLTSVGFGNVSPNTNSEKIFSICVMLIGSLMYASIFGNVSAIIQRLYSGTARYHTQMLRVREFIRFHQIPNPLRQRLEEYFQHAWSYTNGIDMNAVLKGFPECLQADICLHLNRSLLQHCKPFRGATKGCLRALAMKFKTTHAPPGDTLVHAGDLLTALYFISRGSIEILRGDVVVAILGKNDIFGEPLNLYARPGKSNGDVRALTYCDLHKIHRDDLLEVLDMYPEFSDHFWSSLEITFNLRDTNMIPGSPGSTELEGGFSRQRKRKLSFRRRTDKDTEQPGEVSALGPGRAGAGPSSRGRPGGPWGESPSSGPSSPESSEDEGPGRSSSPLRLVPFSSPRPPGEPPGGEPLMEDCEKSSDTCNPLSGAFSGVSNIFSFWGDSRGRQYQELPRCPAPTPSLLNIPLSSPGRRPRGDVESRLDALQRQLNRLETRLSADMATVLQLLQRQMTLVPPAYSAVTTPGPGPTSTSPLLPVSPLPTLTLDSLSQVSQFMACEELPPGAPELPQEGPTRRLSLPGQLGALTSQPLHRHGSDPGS

Question: Which results are given for `CCS(=O)(=O)c1ccc(CNC(=O)c2cc3c(s2)C(C(C)C)N(C[C@H]2CC[C@H](C(F)(F)F)CC2)C3)nc1` (single isomer, unassigned) [Example 1]?
Answer: IC50 (hERG potassium channel): > 40000 nM; inhibition at 2.5 min, 40 μM (hERG potassium channel; human): 26.3%; EC50 (RORγ; Specific value of the concentration required for 50% inhibition (EC50) of RORγ): 15.8 nM; EC50 (RORγ; Value of the concentration required for 50% Inhibition (EC50) of RORγ): < 100 nM
